According to ChEMBL document CHEMBL1201862, “PubChem BioAssay data set” (2004):
Calls of active or inactive are those of the source.

What was measured:
BJ [1] = assay: BJ-TERT fibroblast viability loss – cell-based, RAS-independent, luminescence, dose response (AID 1933); assay type: functional, Homo sapiens; conditions: Homo sapiens, BJ
BJ [2] = assay: cells; assay type: functional, cell-based, Homo sapiens; conditions: Homo sapiens, BJ
BJ [3] = assay: BJ-TERT-LT-ST fibroblast viability loss – cell-based, RAS-independent, luminescence, dose response (AID 1935); assay type: functional, Homo sapiens; conditions: Homo sapiens, BJ;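 further: BJ fibroblasts immortalized with TERT plus LT and ST oncogenes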
[4] = DRD fibroblast viability loss – cell-based, non-viral oncogenic, luminescence, dose response (AID 1934); assay type: functional; conditions: Homo sapiens
CHO-K1 = assay: (§1) Counterscreen for antagonists of the orexin 1 receptor (OX1R; HCRTR1): Homogeneous time resolved fluorescence (HTRF)-based cell-based dose response assay to identify antagonists of the parental CHO-K1 cell line. [Related pubchem assays (depositor defined):AID434989, AID435008, AID463079, AID485270, AID492963, AID492964, AID492965, AID493232, AID504699, AID504701]; assay type: functional; conditions: Cricetulus griseus
[5] = Luminescence Cell-Based Dose Retest to Confirm Inhibitors of Cancer Stem Cells. [Related pubchem assays (depositor defined):AID2717, AID2721]; assay type: functional; conditions: Homo sapiens
[6] = as §1, with “Fluorescence-based” for “Homogeneous time resolved fluorescence (HTRF)-based”, “cell-based high throughput” for “cell-based”, “CHO” for “CHO-K1”; assay type: functional
[7] = biological target: T1, Orexin/Hypocretin receptor type 1 (Homo sapiens, UniProt O43613); assay: Homogeneous Time Resolved Fluorescence (HTRF)-based cell-based high throughput dose response assay for antagonists of the orexin 1 receptor (OX1R; HCRTR1). [Related pubchem assays (depositor defined):AID434989, AID435008, AID463079, AID485270, AID492963, AID492964, AID492965, AID493232, AID504717, AID504718]; assay type: functional
T1 sequence (O43613 whole entry): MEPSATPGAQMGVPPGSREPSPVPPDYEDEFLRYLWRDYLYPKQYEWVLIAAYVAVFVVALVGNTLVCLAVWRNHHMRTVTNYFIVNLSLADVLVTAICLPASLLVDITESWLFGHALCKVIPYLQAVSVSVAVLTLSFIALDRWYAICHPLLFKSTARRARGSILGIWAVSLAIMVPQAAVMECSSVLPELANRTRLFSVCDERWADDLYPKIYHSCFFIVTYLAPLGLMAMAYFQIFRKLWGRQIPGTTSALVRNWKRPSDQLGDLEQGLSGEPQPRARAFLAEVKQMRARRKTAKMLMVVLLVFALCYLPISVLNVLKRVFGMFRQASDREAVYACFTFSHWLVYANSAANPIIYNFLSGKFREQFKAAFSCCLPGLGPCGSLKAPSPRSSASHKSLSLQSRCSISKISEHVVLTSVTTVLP

[8] = HEK-293T viability loss after treatment – luminescence, T-cell screen hits, cytotoxicity control for TCR NF-kB inhibitor project, dose response (AID 489026); assay type: functional, cell-based;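 further: cells exposed to compound about 14 hours before the viability readout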
[9] = biological target: T1, Orexin/Hypocretin receptor type 1; assay: Fluorescence-based cell-based high throughput dose response assay for antagonists of the orexin 1 receptor (OX1R; HCRTR1). [Related pubchem assays (depositor defined):AID434989, AID435008, AID463079, AID485270, AID492963, AID492964, AID492965, AID493232, AID504717, AID504718]; assay type: functional
Orexin receptor type 2 [10] = biological target: T2, Orexin receptor type 2 (Homo sapiens, UniProt O43614); assay: Counterscreen assay for antagonists of the orexin 1 receptor (OX1R; HCRTR1): Fluorescence-based cell-based dose response assay for antagonists of the orexin 2 receptor (OX2R; HCRTR2), run by assay provider.; assay type: functional
Orexin receptor type 2 [11] = biological target: T2, Orexin receptor type 2; assay: Counterscreen assay for antagonists of the orexin 1 receptor (OX1R; HCRTR1): Homogeneous Time Resolved Fluorescence (HTRF)-based cell-based dose response assay for antagonists of the orexin 2 receptor (OX2R; HCRTR2), run by assay provider.; assay type: functional
Paired box protein Pax-8 = Paired box protein Pax-8 (Homo sapiens, UniProt Q06710); assay: PAX8 transcriptional activity inhibition in RMG-I – RMG-I cells, luciferase, cherry-pick, dose response (AID 687027); assay type: functional, cell-based;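 further: luciferase reporter driven by Pax8 target thyroperoxidase promoter measured by SteadyGlo luminescence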
[12] = test system: Streptococcus sp. 'group A'; assay: Streptococcus pyogenes SK(-)GAS viability under kanamycin – luminescence, BacTiterGlo, confirmation, counter-screen for streptokinase expression inhibitor project, dose response (AID 1900); assay type: functional, organism-based
Beta-galactosidase = Beta-galactosidase (Escherichia coli, UniProt Q8VNN2); assay: PubChem AID 485352; assay type: functional
[13] = biological target: T3, Heat shock factor protein 1 (Mus musculus, UniProt P38532); assay: decrease of HSF1-responsive luciferase luminescence – cell-based, NIH3T3, dose retest, confirmation (AID 2382); assay type: functional;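 further: NIH3T3 fibroblasts with HSF1-driven luciferase reporter stressed by proteasome inhibitor MG132; luminescence from HSF1-driven luciferase expression after 8 hours of MG132 stress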
T3 sequence (P38532 whole entry): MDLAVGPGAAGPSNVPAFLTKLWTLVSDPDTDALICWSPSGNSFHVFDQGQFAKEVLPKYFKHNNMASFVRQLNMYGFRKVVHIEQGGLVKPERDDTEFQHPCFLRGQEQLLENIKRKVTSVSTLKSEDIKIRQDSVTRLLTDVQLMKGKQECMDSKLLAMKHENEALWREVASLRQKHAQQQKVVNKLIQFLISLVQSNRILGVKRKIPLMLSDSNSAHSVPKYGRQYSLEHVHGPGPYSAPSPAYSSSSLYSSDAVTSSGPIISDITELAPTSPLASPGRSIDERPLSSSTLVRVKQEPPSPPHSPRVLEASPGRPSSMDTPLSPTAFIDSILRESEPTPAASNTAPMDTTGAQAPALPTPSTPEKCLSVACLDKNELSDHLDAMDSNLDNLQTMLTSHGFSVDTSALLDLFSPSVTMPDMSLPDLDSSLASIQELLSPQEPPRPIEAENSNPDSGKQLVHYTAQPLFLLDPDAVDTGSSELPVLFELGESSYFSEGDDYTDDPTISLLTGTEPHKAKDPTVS

Streptokinase A = biological target: T4, Streptokinase A (Streptococcus pyogenes serotype M1, UniProt P10520); assay: viability-normalized secreted streptokinase activity reduction – plasminogen activation absorbance, OD405, dose response (AID 1914); assay type: functional, Streptococcus pyogenes M1 GAS;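 further: secreted streptokinase activity via plasminogen activation per viability signal from cell pellet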
T4 sequence (P10520 whole entry): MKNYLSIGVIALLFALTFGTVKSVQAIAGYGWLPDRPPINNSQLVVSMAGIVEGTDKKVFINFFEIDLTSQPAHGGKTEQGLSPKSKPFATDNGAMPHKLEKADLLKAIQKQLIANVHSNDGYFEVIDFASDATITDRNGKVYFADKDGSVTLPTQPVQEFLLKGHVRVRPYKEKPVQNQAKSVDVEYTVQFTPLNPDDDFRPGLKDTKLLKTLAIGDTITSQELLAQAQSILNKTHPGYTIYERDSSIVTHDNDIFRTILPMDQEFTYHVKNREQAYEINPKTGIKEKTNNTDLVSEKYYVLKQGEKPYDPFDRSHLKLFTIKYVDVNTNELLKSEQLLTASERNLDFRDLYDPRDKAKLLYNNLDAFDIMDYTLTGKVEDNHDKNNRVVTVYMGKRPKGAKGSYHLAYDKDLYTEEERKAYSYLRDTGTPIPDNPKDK

[14] = Trypanosoma cruzi growth suppression in host cells – NIH3T3 host cells, beta-gal luminescence, confirmation (AID 2044); assay type: functional, cell-based;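 further: intracellular parasites grown in NIH/3T3 mouse fibroblasts as host cells; luminescent beta-galactosidase reporter signal from transgenic T. cruzi replicating inside host cells; inhibitors lower the luminescence signal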
[15] = Luminescence-based dose response cell-based high throughput screening assay for cytotoxic compounds using the IEC-6 intestinal epithelial cell line. [Related pubchem assays: 1858 (Summary AID.), 1825 (Counterscreen.), 1907 (Confirmation screen.)]; assay type: functional
[16] = biological target: T5, Type-1 angiotensin II receptor (Homo sapiens, UniProt P30556); assay: antagonism of angiotensin II type 1 receptor – cell-based, uHTS hits, selectivity assay for APJ receptor antagonist project, dose response (AID 463214); assay type: functional;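 further: antagonist potency against angiotensin II stimulated AT1 response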
T5 sequence (P30556 whole entry): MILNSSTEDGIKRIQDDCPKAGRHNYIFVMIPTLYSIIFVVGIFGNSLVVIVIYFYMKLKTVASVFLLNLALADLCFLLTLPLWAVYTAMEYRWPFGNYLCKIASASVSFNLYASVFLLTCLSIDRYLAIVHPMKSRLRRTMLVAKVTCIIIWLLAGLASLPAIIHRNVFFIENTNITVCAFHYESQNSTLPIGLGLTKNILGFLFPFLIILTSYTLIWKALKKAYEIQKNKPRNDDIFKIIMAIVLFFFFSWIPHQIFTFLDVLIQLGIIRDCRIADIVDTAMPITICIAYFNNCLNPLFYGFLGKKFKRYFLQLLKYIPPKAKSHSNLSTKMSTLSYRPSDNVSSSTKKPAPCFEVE

[17] = NIH3T3 cell viability loss – ATP luminescence, mouse fibroblasts, counter-screen, dose response (AID 2010); assay type: functional, cell-based;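 further: cells exposed to compound for about 90 hours before reading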
Streptococcus = assay: GAS UMAA2166 growth inhibition – luminescence, BacTiterGlo, counter-screen for streptokinase expression inhibitor project, dose response (AID 1915); assay type: functional, organism-based;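 further: potency for reduction of bacterial viability or growth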
HEK293 [18] = assay: HEK293T cell viability loss, resazurin readout – resazurin fluorescence, cytotoxicity control for NF-kB activator project, SAR follow-up (AID 493251); assay type: functional, cell-based; conditions: Homo sapiens
Jurkat = assay: SAR Analysis of small molecule inhibitors of both B-cell and T-cell specific antigen receptor-induced NF-kB activation in a Jurkat cell line using a luminescence assay. [Related pubchem assays (depositor defined):AID435003, AID435022, AID465, AID489029]; assay type: functional, cell-based; conditions: Homo sapiens
HEK293 [19] = assay: SAR Analysis of small molecule inhibitors of both B-cell and T-cell specific antigen receptor-induced NF-kB activation in a HEK-293T cell line using a luminescence assay. [Related pubchem assays (depositor defined):AID435003, AID435022, AID465, AID489019, AID489029]; assay type: functional, cell-based; conditions: Homo sapiens
[20] = reduction of Shn3 3'UTR-driven luciferase in osteoblasts – cell-based, Clone20 osteoblasts, firefly luciferase, cherry-picked, dose response (AID 624132); assay type: functional;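 further: firefly luciferase luminescence from reporter carrying the Shn3 3'UTR in osteoblasts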
[21] = loss of viability in HepG2 cells – cell-based, CellTiter-Glo, cherry-picked, cytotoxicity control for Shn3 inhibitor project, dose response (AID 624134); assay type: functional
[22] = non-specific 3'UTR reporter inhibition in Clone20-Shn3RL – cell-based, Renilla luciferase, cherry-picked, counter-screen for Shn3 inhibitor project, dose response (AID 624133); assay type: functional
[23] = Fluorescence-based cell-based high throughput dose response assay for inhibitors of the interaction of nucleotide-binding oligomerization domain containing 2 (NOD2) and the receptor-interacting serine-threonine kinase 2 (RIPK2).; assay type: functional; conditions: Homo sapiens

T2 sequence (O43614 whole entry): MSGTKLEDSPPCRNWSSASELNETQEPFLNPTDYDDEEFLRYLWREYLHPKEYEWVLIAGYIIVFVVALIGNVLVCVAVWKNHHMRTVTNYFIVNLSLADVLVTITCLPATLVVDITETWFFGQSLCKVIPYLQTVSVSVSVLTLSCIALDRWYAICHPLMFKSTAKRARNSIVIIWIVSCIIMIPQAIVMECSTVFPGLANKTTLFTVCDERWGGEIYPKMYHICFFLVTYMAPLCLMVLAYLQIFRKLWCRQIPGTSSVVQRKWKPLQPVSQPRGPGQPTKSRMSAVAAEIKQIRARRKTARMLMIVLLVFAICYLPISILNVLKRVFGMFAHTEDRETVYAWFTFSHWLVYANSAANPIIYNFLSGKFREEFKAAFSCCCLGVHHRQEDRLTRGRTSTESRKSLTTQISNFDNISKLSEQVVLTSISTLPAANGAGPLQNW
Chain of Paired box protein Pax-8 (Q06710 whole entry): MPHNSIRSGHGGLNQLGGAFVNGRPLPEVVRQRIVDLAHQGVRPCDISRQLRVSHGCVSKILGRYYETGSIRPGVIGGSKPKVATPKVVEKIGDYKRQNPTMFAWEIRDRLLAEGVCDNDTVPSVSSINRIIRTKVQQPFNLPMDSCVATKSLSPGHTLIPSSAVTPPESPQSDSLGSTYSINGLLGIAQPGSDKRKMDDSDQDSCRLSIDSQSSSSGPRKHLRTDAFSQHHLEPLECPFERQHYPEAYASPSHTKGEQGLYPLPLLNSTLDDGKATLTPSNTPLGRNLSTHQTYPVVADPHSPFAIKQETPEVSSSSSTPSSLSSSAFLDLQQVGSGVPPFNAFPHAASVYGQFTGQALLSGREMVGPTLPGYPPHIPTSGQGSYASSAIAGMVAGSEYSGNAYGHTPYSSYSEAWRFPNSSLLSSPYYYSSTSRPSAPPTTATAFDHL
Chain of Beta-galactosidase (Q8VNN2 whole entry): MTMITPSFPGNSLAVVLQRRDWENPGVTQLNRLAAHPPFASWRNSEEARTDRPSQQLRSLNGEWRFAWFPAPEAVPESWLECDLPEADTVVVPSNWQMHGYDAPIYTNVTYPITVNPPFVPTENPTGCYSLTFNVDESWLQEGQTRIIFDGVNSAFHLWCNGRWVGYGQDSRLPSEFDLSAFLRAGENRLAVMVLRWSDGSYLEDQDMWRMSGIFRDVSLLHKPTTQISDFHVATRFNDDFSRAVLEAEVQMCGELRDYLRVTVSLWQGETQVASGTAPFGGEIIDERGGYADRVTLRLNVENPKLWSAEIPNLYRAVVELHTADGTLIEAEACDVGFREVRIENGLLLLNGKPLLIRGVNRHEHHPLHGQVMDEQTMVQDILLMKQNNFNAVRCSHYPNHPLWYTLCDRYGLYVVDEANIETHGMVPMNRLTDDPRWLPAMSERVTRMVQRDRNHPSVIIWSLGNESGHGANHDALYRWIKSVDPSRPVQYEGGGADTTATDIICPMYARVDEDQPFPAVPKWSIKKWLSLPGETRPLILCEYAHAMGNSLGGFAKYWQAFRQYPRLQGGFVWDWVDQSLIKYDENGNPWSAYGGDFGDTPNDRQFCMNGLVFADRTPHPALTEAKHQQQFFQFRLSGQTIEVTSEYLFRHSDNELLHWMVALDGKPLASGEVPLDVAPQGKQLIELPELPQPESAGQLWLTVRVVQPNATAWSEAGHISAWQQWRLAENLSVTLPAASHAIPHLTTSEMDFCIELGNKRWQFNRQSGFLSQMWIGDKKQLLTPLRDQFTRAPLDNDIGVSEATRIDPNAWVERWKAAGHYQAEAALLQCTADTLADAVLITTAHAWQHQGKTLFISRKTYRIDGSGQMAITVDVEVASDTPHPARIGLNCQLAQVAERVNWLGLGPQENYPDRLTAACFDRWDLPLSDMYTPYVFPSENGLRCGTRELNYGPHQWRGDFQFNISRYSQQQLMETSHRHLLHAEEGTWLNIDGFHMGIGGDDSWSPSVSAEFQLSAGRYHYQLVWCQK

## CCn1c2ccccc2c2cc(NC(=O)c3cc(OC)cc(OC)c3)ccc21
BJ [1]
  EC50: 0.431 µM (active)
BJ [2]
  EC50: 22.8 µM (active)
BJ [3]
  EC50: 0.365 µM (inconclusive)
[4]
  EC50: 0.545 µM (active)
CHO-K1
  IC50: > 66.2 µM (inactive)
[5]
  AC50: < 0.16 µM (active)
[6]
  IC50: > 49.8 µM (inactive)
[7]
  IC50: 0.554 µM (active)
[8]
  IC50: > 80 µM (inactive)
[9]
  IC50: 1.38 µM (active)
Orexin receptor type 2 [10]
  IC50: 21.7 µM (inactive)
Orexin receptor type 2 [11]
  IC50: > 50 µM (inactive)
Paired box protein Pax-8
  AC50: 4.74 µM (active)

## COc1cc(NS(=O)(=O)c2ccc(C)cc2)c2ncccc2c1
[12]
  EC50: 2.6 µM (active)
Beta-galactosidase
  EC50: > 40 µM (inactive)
[13]
  EC50: 24.3 µM (active)
Streptokinase A
  EC50: > 150 µM (not active)
[14]
  EC50: 0.524 µM (active)
[15]
  IC50: 1.58 µM (active)
[16]
  IC50: 3.88 µM (active)
[17]
  EC50: 1.45 µM (active)
Streptococcus
  EC50: 21.7 µM (active)
[8]
  IC50: > 80 µM (inactive)
HEK293 [18]
  IC50: > 80 µM (inactive)
Jurkat
  IC50: 1.52 µM (active)
HEK293 [19]
  IC50: > 79 µM (inactive)
[20]
  AC50: 3.35 µM (active)
[21]
  AC50: 9.77 µM (active)
[22]
  AC50: 13.8 µM (active)
[23]
  IC50: 5.53 µM (active)
